Assay type in all cases: in vivo, rabbit
Assay [1] has as its system REC1_28 (digital address CGGT 101) mRNA, calgizzarin. Put plainly: TOGA analysis, REC1_28. As to conditions: REC1_28 CGGT 101; rabbit aorta, 14 days cholesterol. The method, then:
(§1) To perform the studies, New Zealand male rabbits weighing 2.0-2.5 kg (Charles River, Calco, Italy) were used. The rabbits were divided into three groups and maintained in identical experimental conditions: (1) control group (n=15); rabbits fed a cholesterol-rich diet; (2) lercanidipine-treated group (n=15); rabbits fed a cholesterol-rich diet and also treated with lercanidipine (3 mg/kg/week); and (3) (R)-lercanidipine-treated group (n=5); rabbits fed a cholesterol-rich diet and also treated with the (R)-enantiomer of lercanidipine (3 mg/kg/week). After a 2 week period of subcutaneous, once a week, pretreatment with 3 mg/kg/week of lercanidipine or (R)-lercanidipine, the rabbits received a daily cholesterol supplement for up to 8 weeks or 2 weeks, respectively. In the following examples, use of the term “lercanidipine” refers to the racemic mixture of lercanidipine hydrochloride, whereas “(R)-lercanidipine” refers to the (R)-enantiomer of lercanidipine hydrochloride.
(§2) The mRNA from the above-described groups was isolated from aorta at different time points, resulting in the following mRNA samples: (1) Day 0 Control=no administered cholesterol, no lercanidipine; (2) Day 0+lercanidipine=no administered cholesterol, treatment with lercanipidine (2 weeks; 3 mg/kg/week); (3) Day 14 Control=cholesterol diet for two weeks, no lercanidipine; (4) Day 14+lercanidipine=cholesterol diet for two weeks, treatment with lercanidipine (four weeks; 3 mg/kg/week); (5) Week 8 Control=cholesterol diet for 8 weeks, no lercanidipine; and (6) Week 8+lercanidipine=cholesterol diet for 8 weeks, treatment with lercanidipine (10 weeks; 3 mg/kg/week). In addition, Day 14+(R)-lercanidipine mRNA samples were prepared from rabbits given a cholesterol diet for two weeks and treated with 3 mg/kg/week (R)-lercanidipine for four weeks.
(§3) Aorta mRNAs were prepared in the following manner. First, the aortas from each experimental group were retrieved and shredded using a polytron homogenizer. The samples were further homogenized using a teflon pestle, after which the cellular debris, nuclei, and blood cells were pelleted by centrifugation. The supernatants were extracted twice with phenol-chloroform-isoamyl alcohol and once with chloroform-isoamyl alcohol. RNA was then precipitated from the aqueous phase with ethanol. The poly A+ mRNA was prepared using standard methods of polyA selection known in the art (Schriber et al., J. Mol. Biol., 142:93-116 (1980)).
(§4) The isolated mRNA was analyzed using a method of simultaneous sequence-specific identification of mRNAs known as TOGA, described in U.S. Pat. No. 5,459,037 and U.S. Pat. No. 5,807,680, hereby incorporated herein by reference. In a preferred embodiment, the TOGA method further comprised an additional PCR step performed using a mixture of four 5′ PCR primers and cDNA templates prepared from a population of antisense cRNAs. A final PCR step that used a mixture of 256 5′ PCR primers produced PCR products that were cDNA fragments that corresponded to the 3′-region of the starting mRNA population. The produced PCR products were then identified by: (a) the initial 5′ sequence comprising the sequence remainder of the recognition site of the restriction endonuclease used to cut and isolate the 3′ region plus the sequence of the preferably four parsing bases immediately 3′ to the remainder of the recognition site, preferably the sequence of the entire fragment; and (b) the length of the fragment. These two parameters, sequence and fragment length, were used to compare the obtained PCR products to a database of known polynucleotide sequences. Since the length of the obtained PCR products includes known vector sequences at the 5′ and 3′ ends of the insert, the sequence of the insert provided in the sequence listing is shorter than the fragment length that forms part of the digital address.
(§5) The method yields Digital Sequence Tags (DSTs), that is, polynucleotides that are expressed sequence tags of the 3′ end of mRNAs. […]

Assay [2] relates to REC1_22 (digital address TGGG 164) mRNA. Put plainly: TOGA analysis, REC1_22. The note with it: REC1_22 TGGG 164; rabbit aorta, cholesterol 14 days. As for the experimental part: as §1, §2, §3, §4, §5
In assay [3] the test system is REC1_19 (TGTT 393) mRNA. Put plainly: TOGA analysis, REC1_19. As to conditions: REC1_19 TGTT 393; rabbit aorta, cholesterol 14 days. As for the experimental part:
as §1, §2, §3
as §4, with “These two parameters, sequence and fragment length, were used to compare the obtained PCR products to a database of known polynucleotide sequences. Since the length of the obtained PCR products includes known vector sequences at the 5′ and 3′ ends of the insert, the sequence of the insert provided in the sequence listing is shorter than the fragment length that forms part of the digital address.” left out

The subject of assay [4] is REC1_8 (MspI CCCG 243) mRNA. The assay is described as follows: TOGA analysis, REC1_8. The note with it: REC1_8 CCCG 243; rabbit aorta, 14 days cholesterol. The method, then: as §1, §2, §3
as §4, with “These two parameters, sequence and fragment length, were used to compare the obtained PCR products to a database of known polynucleotide sequences. Since the length of the obtained PCR products includes known vector sequences at the 5′ and 3′ ends of the insert, the sequence of the insert provided in the sequence listing is shorter than the fragment length that forms part of the digital address.” left out

Assay [5] relates to REC1_31 (digital address TGCA 210) mRNA, mitochondrial genome. The assay is described as follows: TOGA analysis, REC1_31. As to conditions: REC1_31 TGCA 210; rabbit aorta, cholesterol 14 days. The method, then:
as §1, §2, §3, §4, §5

The test system of assay [6] is REC1_3 (MspI ACGG 162) mRNA. The assay is described as follows: TOGA analysis, REC1_3. The note with it: REC1_3, ACGG 162; rabbit aorta; 14 days cholesterol + (R)-enantiomer. As for the experimental part:
as §1, §2, §3
as §4, with “These two parameters, sequence and fragment length, were used to compare the obtained PCR products to a database of known polynucleotide sequences. Since the length of the obtained PCR products includes known vector sequences at the 5′ and 3′ ends of the insert, the sequence of the insert provided in the sequence listing is shorter than the fragment length that forms part of the digital address.” left out

Assay [7] relates to REC1_1 (MspI AAGC 288) mRNA, TYRO protein tyrosine kinase binding p. The assay is described as follows: TOGA analysis, REC1_1. As to conditions: REC1_1, AAGC 288; rabbit aorta; 14 days cholesterol + (R)-enantiomer. The method, then: as §1, §2, §3, §4, §5
Assay [8] deals with REC1_37 (digital address TTCA 264) mRNA, ribosomal protein L15. The assay is described as follows: TOGA analysis, REC1_37. The note with it: REC1_37 TTCA 264; rabbit aorta, cholesterol 14 days. As for the experimental part:
as §1, §2, §3, §4, §5

Assay [9] deals with REC1_7 (MspI CACA 282) mRNA. Put plainly: TOGA analysis, REC1_7. As to conditions: REC1_7, CACA 282; rabbit aorta; 14 days cholesterol + (R)-enantiomer. The method, then:
as §1, §2, §3, §4, §5

For assay [10], the system named is REC1_24 (digital address CCGG 232) mRNA. The assay is described as follows: TOGA analysis, REC1_24. The note with it: REC1_24 CCGG 232; rabbit aorta, 14 days cholesterol. As for the experimental part:
as §1, §2, §3, §4, §5

The subject of assay [11] is REC1_34 (digital address CGGT 209) mRNA. The assay is described as follows: TOGA analysis, REC1_34. The note with it: REC1_34 CGGT 209; rabbit aorta, 14 days cholesterol. The method, then: as §1, §2, §3, §4, §5
The test system of assay [12] is REC1_33 (digital address CCGA 96) mRNA, as1_casein gene. The assay is described as follows: TOGA analysis, REC1_33. The note with it: REC1_33 CCGA 96; rabbit aorta, 14 days cholesterol. The method, then:
as §1, §2, §3, §4, §5

`COC(=O)C1=C(C)NC(C)=C(C(=O)OC(C)(C)CN(C)CCC(c2ccccc2)c2ccccc2)[C@@H]1c1cccc([N+](=O)[O-])c1` [Lercanidipine (R)]: the “level of gene expression, 14 Day hypercholesterol + Lercanidipine (R)” value in assay [1] amounted to 864; in assay [2], 47; in assay [3], 748; in assay [4], 539; in assay [5], 28; in assay [8] it was 42. In addition, the “level of gene expression, 14 Day hypercholesterol + Lercanidipine (R)” value was 139 in assay [10], 58 in assay [11] and 170 in assay [12]. Also, the “level of gene expression (TOGA), 14 Day hypercholesterol + Lercanidipine (R)” value in [6] is recorded as 197; in assay [7], 872; in [9] it was 683.

Source of the values: patent US20030215817A1, “Modulation of gene expression in formation of fatty atherosclerotic lesions” (priority 2003, published 2003).
